Measured values taken from patent US20060205724A1, “Antagonizing nk-1 receptors inhibits consumption of substances of abuse” (The Regents of the University of California, priority 2002, published 2006).

Key:
[1] = system: rat; assay: self-administration of ethanol by a rat (ethanol intake, water intake, ethanol preference); type: in vivo
Source text: The graphs show ethanol intake, water intake, and ethanol preference.
FIG. 2 illustrates the effect of administration of the NK1 receptor antagonist LY303870 on self-administration of alcohol by a rat.
Without being bound to a particular theory, it is believed that this effect may be due to failure of WIN 51,708 to cross the blood-brain barrier.

[2] = system: rats; assay: loss of righting reflex (measure of intoxication) in rats administered ethanol; type: in vivo, rat; conditions: rats given 3 g/kg of ethanol; vs vehicle-treated animals
Source text: FIG. 1 illustrates the effect of an NK1 receptor antagonist (LY303870) on the loss of righting reflex in rats administrated ethanol at 3 and 4 g/kg. *P<0.05 vs vehicle-treated animals. n=9-10 per group.

C#C[C@]1(O)CC[C@H]2[C@@H]3CC[C@H]4Cc5nc6nc7ccccc7n6cc5C[C@]4(C)[C@H]3CC[C@@]21C [WIN 51,708]
ethanol consumption [1]: did not have a significant effect | ethanol preference (ethanol as compared to water) [1]: did not alter preference

COc1ccccc1CN(C[C@@H](Cc1c[nH]c2ccccc12)NC(=O)CN1CCC(N2CCCCC2)CC1)C(C)=O [LY303870]
loss of righting reflex (time the test animals were "drunk") [2]: reduced the time the test animals were “drunk” | ethanol preference (ethanol as compared to water) [1]: reduced preference for ethanol as compared to water | self-administration of ethanol ([1]; 2.5 mg/kg or greater): significant reduction in self-administration of ethanol
